Where “and” joins values, the source holds several entries; their conditions need not be identical. Identical values can stand only once.
Assays:
Format in all cases: cell-based
[1] = biological target: T1, rat ASIC1a (Rattus norvegicus, UniProt P55926); test: Kinetics of closed-state (pH 7.1-induced) desensitization and recovery; conditions: 100 nM
T1 construct: expressed in transfected cells
T1 sequence (P55926 1-526): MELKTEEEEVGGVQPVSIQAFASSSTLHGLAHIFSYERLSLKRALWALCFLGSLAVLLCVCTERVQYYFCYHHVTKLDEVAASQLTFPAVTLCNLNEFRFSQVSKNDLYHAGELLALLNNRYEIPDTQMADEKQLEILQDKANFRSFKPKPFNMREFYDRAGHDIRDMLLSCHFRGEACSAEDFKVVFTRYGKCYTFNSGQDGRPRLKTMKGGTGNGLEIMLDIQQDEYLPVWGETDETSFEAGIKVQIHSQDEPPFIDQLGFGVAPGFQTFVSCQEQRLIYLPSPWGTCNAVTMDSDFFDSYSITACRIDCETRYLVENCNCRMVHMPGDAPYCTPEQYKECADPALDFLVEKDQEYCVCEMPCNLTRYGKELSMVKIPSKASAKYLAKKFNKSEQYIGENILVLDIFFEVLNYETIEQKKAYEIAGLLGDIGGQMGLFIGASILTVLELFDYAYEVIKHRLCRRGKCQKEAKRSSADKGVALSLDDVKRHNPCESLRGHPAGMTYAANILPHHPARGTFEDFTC
Procedure: (§1) Chinese Hamster Ovary (CHO) cells stably expressing rat ASIC1a were cultured in Ham’s F12, supplemented with 10% FBS, 1% penicillin–streptomycin and 500 µg/mL G418 and incubated at 37 °C with 5% CO2. Transient transfections of rASIC1a and cASIC1 wild-type or mutant channels in CHO cells were performed with Lipofectamine 3000 (Thermo Fisher Scientific) according to the manufacturer’s recommendations. The green fluorescent protein (GFP) cDNA (at 1/10 the amount of channel cDNA) was co-transfected with channel cDNA to aid the identification of transfected cells under the microscope in patch clamp experiments. All cDNAs were sequence verified.
(§2) Cells were freshly dissociated with CellStripper (Corning) and dispersed in a chamber on the stage of an inverted microscope. Upon formation of the whole-cell conformation, the cell was lifted from the bottom of the chamber and placed at the tip of a tubing perfusing an extracellular solution containing (in mM): 149 NaCl, 2 CaCl2, 4 KCl, 1 MgCl2, 5 glucose, 10 HEPES, pH 7.4, 310 mOsm/L. Extracellular solutions at more basic or acidic pHs were made by titrating the above pH 7.4 solution with NaOH or HCl (5 mM MES was added to solutions at pH 6.0 and lower). Pipette electrodes were filled with an intracellular solution containing (in mM): 135 KCl, 4 MgATP, 0.3 Na2GTP, 10 EGTA, and 20 HEPES, pH 7.2, 290 mOsm/L.
(§3) All recordings were performed at room temperature using an Axopatch 200B amplifier and pClamp 11 software (Molecular Devices). Currents were measured by whole-cell patch clamp, digitized at 10 kHz and lowpass filtered at 2 kHz. Series resistance was 75% compensated. Responses were elicited by rapid perfusion of acidic solutions using the SF-77B Fast-Step Perfusion device (Warner Instruments) for 40 ms once every 30 s (unless indicated otherwise) and recorded till steady state was reached. The holding potential was 0 mV unless indicated otherwise.
(§4) Baseline values (i.e., current amplitudes at the conditioning pH) were subtracted to obtain responses evoked by the test pH. Responses were normalized for each cell before averaging (see figure legends for more detail on normalization for each type of experiment). Concentration–response data were fitted to a logistic function of the form: R = (A1–A2)/(1 + (C/C0)^h)+A2, where R is the normalized response, C is either pH or compound concentration, C0 is the pH/concentration at which half-maximal response occurs (pH50 or IC50), h is the Hill coefficient, and A1 and A2 are constants. Kinetic parameters were obtained by fitting the data with either a single or double exponential function. Fitted data are shown as solid, dashed, or dotted curves.

[2] = biological target: T1, rat ASIC1a; test: pH dependence of steady-state desensitization (whole-cell patch clamp)
Procedure: as §1, §2, §3, §4

[3] = biological target: T1, rat ASIC1a; test: Kinetics of onset of and recovery (wash) from compound inhibition; conditions: for pH 6.8-induced current, % pH7.4 control: holding pH 7.4, one cell; for pH 6.8-induced current, % pH8.2 control: holding pH 8.2, one cell; for max - % pH7.4 or 8.2 Control (Y): maximal wash current / ss - % pH7.4 or 8.2 Control (Y): steady-state wash current: after 100 nM
Procedure: as §1, §2, §3, §4

[4] = 100 nM, t = -50 s (wash starts at t = 0 s)
[5] = holding pH 7.4 (source data Fig. 2d)
[6] = holding pH 8.2 (source data Fig. 2d)

## Cc1cc(N2CC(Oc3cc(F)c4c(N)n[nH]c4c3)C2)c(F)cn1 [JNJ-67869386]
[1]; 0.8 s in pH 7.1 (source data Fig. 3c)
  current remaining during pH 7.1-induced desensitization, normalized to pre-pH 7.1 pH 6.0 peak, mean: 75.8
[1]; 1.6 s in pH 7.1
  current remaining during pH 7.1-induced desensitization, normalized to pre-pH 7.1 pH 6.0 peak, mean: 70.1
[1]; 3.2 s in pH 7.1
  current remaining during pH 7.1-induced desensitization, normalized to pre-pH 7.1 pH 6.0 peak, mean: 61.0
[1]; 6.4 s in pH 7.1
  current remaining during pH 7.1-induced desensitization, normalized to pre-pH 7.1 pH 6.0 peak, mean: 50.5
[1]; 12.8 s in pH 7.1
  current remaining during pH 7.1-induced desensitization, normalized to pre-pH 7.1 pH 6.0 peak, mean: 36.9
[1]; 25.6 s in pH 7.1
  current remaining during pH 7.1-induced desensitization, normalized to pre-pH 7.1 pH 6.0 peak, mean: 20.0
[1]; 51.2 s in pH 7.1
  current remaining during pH 7.1-induced desensitization, normalized to pre-pH 7.1 pH 6.0 peak, mean: 8.7
[1]; 102.4 s in pH 7.1
  current remaining during pH 7.1-induced desensitization, normalized to pre-pH 7.1 pH 6.0 peak, mean: 4.9
[1]; 204.8 s in pH 7.1
  current remaining during pH 7.1-induced desensitization, normalized to pre-pH 7.1 pH 6.0 peak, mean: 3.1
[1]; single exponential, pH 6.0 test pulses
  time constant of development of pH 7.1-induced desensitization: 15.1 s and 15.1 ± 1.3 s
[2]; 0.1 µM
  pH50 of steady-state desensitization: 7.30 ± 0.03
[2]; 1 µM
  pH50 of steady-state desensitization: 7.27 ± 0.01
[2]; 10 µM
  pH50 of steady-state desensitization: 7.26 ± 0.01
[2]; conditioning pH 6.8, 100 nM
  steady-state desensitization, current % of conditioning pH 8.2, mean: 0.13%
[2]; conditioning pH 6.8, 1 uM
  steady-state desensitization, current % of conditioning pH 8.2, mean: 0.0205%
[2]; conditioning pH 6.8, 10 uM
  steady-state desensitization, current % of conditioning pH 8.2, mean: -0.0952%
[2]; conditioning pH 7.1, 100 nM
  steady-state desensitization, current % of conditioning pH 8.2, mean: 1.6%
[2]; conditioning pH 7.1, 1 uM
  steady-state desensitization, current % of conditioning pH 8.2, mean: 9.0%
[2]; conditioning pH 7.1, 10 uM
  steady-state desensitization, current % of conditioning pH 8.2, mean: 10.8%
[2]; conditioning pH 7.4, 100 nM
  steady-state desensitization, current % of conditioning pH 8.2, mean: 88.8%
[2]; conditioning pH 7.4, 1 uM
  steady-state desensitization, current % of conditioning pH 8.2, mean: 84.6%
[2]; conditioning pH 7.4, 10 uM
  steady-state desensitization, current % of conditioning pH 8.2, mean: 85.5%
[2]; conditioning pH 7.8, 100 nM
  steady-state desensitization, current % of conditioning pH 8.2, mean: 98.6%
[2]; conditioning pH 7.8, 1 uM
  steady-state desensitization, current % of conditioning pH 8.2, mean: 95.5%
[2]; conditioning pH 7.8, 10 uM
  steady-state desensitization, current % of conditioning pH 8.2, mean: 95.9%
[2]; conditioning pH 8.2, 100 nM
  steady-state desensitization, current % of conditioning pH 8.2, mean: 100%
[2]; conditioning pH 8.2, 1 uM
  steady-state desensitization, current % of conditioning pH 8.2, mean: 100%
[2]; conditioning pH 8.2, 10 uM
  steady-state desensitization, current % of conditioning pH 8.2, mean: 100%
[3]; 100 nM, holding pH 7.4
  overshoot of maximum wash current above pre-block control level: > 50%
[3]; 100 nM, t = 0 s
  pH 6.8-induced current, % pH7.4 control: 4.9%
  pH 6.8-induced current, % pH8.2 control: 4.5%
[3]; 100 nM, t = -10 s
  pH 6.8-induced current, % pH7.4 control: 4.7%
  pH 6.8-induced current, % pH8.2 control: 7.4%
[3]; 100 nM, t = -20 s
  pH 6.8-induced current, % pH7.4 control: 3.6%
  pH 6.8-induced current, % pH8.2 control: 4.9%
[3]; 100 nM, t = -30 s
  pH 6.8-induced current, % pH7.4 control: 3.3%
  pH 6.8-induced current, % pH8.2 control: 4.9%
[3]; 100 nM, t = -40 s
  pH 6.8-induced current, % pH7.4 control: 4.5%
  pH 6.8-induced current, % pH8.2 control: 5.7%
[3]; [4]
  pH 6.8-induced current, % pH7.4 control: 6.7%
  pH 6.8-induced current, % pH8.2 control: 47.2%
[3]; 100 nM, holding pH 8.2, pH 6.0 test pulses
  time constant of current inhibition: 3.6 ± 0.2 s
[3]; 100 nM, wash at pH 7.8, pH 6.0-evoked currents
  time constant of wash from inhibition: 12.6 ± 0.6 s
[3]; 100 nM, wash at pH 8.2, pH 6.0-evoked currents
  time constant of wash from inhibition: 12.7 ± 1.3 s
[3]; [5]
  max - % pH7.4 or 8.2 Control (Y): maximal wash current: 154.4%
  ss - % pH7.4 or 8.2 Control (Y): steady-state wash current: 95.3%
[3]; [6]
  max - % pH7.4 or 8.2 Control (Y): maximal wash current: 96.9%
  ss - % pH7.4 or 8.2 Control (Y): steady-state wash current: 96.8%
[3]; wash after 100 nM, t = 10 s
  pH 6.8-induced current, % pH7.4 control: 36.5%

Reference: article PMC7873226, “Molecular mechanism and structural basis of small-molecule modulation of the gating of acid-sensing ion channel 1” (Communications Biology, 2021)
